Source: patent publication US20260240869A1, “ANTIPSEUDOMONAL FUSIDIC ACID COMPOUNDS” (priority 2022, published 2026)
Where two headings read alike, the source gives them in different places.

Columns and labels:
E. coli MG1655 = assay: MIC, E. coli MG1655; format: cell-based; details: Escherichia coli
How it was run: (§1)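 MIC read from microdilution in broth (CLSI method). Media: cation-adjusted Mueller-Hinton or LB Lennox. Triplicate biological repeats.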

[1] = tested on: clinical isolates of P. aeruginosa; assay: MIC against panel of clinical isolates of P. aeruginosa; format: cell-based, Pseudomonas aeruginosa; details: for MIC: Pseudomonas aeruginosa
Description: (§2) Antimicrobial Susceptibility Tests. Susceptibility testing was performed in biological triplicate, using the microdilution broth method as outlined by the Clinical and Laboratory Standards Institute. Bacteria were cultured with cation-adjusted Meuller-Hinton broth (Sigma-Aldrich; catalogue number: 90922) or Luria-Bertani (LB) broth (Lennox) in round-bottom 96-well plates (Corning; catalogue number: 3788).

P. aeruginosa PAO1 = assay: MIC, CLSI broth microdilution, P. aeruginosa PAO1; format: cell-based, Pseudomonas aeruginosa; details: for MIC: Pseudomonas aeruginosa
How it was run: as §1

[2] = Hydrolysis of prodrug in CAMH; format: physicochemical; details: In CAMH at 37° C.
Text: As a result, amidoxime prodrug versions containing variable amine linkers were designed (Table 8).

S. aureus ATCC 29213 = assay: MIC, S. aureus ATCC 29213; format: cell-based; details: Staphylococcus aureus, ATCC29213, read-out: MIC S. aureus ATCC 29213
Description: as §2

In the case of `CC(=O)O[C@H]1C[C@@]2(C)[C@@H](C[C@@H](O)[C@H]3[C@@]4(C)CC[C@@H](O)[C@@H](C)[C@@H]4CC[C@@]32C)/C1=C(\CCC=C(C)C)C(=O)O/N=C(\N)CNCCCNCCCNCCCN` [FA prodrug, (3R, 4S,5S,8S,9S,10S,11R,13R,14S,16S,Z)-17-((Z)-1,14-diamino-22-methyl-17-oxo-16-oxa-4,8,12,15-tetraazatricosa-14,21-dien-18-ylidene)-3,11-dihydroxy-4,8,10,14-tetramethylhexadecahydro-1H-cyclopenta[a]phenanthren-16-yl acetate], the MIC (E. coli MG1655; MG1655, read-out: E. coli MG1655 MIC) is reported as 4 µg/mL, the MIC (E. coli MG1655; MG1655, read-out: MIC E. coli MG1655) is reported as 4 µg/mL and the “improved activity relative to FA against 75 clinical isolates” value ([1]; FIG. 5c) is reported as 64-256 ×. The MIC ([1]; AR Bank Isolate # 0054) was 16 µg/mL, the MIC ([1]; AR Bank Isolate # 0064) was 16 µg/mL and the MIC ([1]; AR Bank Isolate # 0090) was 16 µg/mL. It also gave an MIC ([1]; AR Bank Isolate # 0092) of 16 µg/mL, an MIC ([1]; AR Bank Isolate # 0095) of 16 µg/mL and an MIC ([1]; AR Bank Isolate # 0100) of 16 µg/mL. For the same compound, the MIC ([1]; AR Bank Isolate # 0103) was 16 µg/mL, the MIC ([1]; AR Bank Isolate # 0110) was 16 µg/mL and the MIC ([1]; AR Bank Isolate # 0229) was 16 µg/mL. For the same compound, the MIC ([1]; AR Bank Isolate # 0230) was 16 µg/mL, the MIC ([1]; AR Bank Isolate # 0231) was 8 µg/mL and the MIC ([1]; AR Bank Isolate # 0232) was 16 µg/mL. The MIC ([1]; AR Bank Isolate # 0233) was 16 µg/mL, the MIC ([1]; AR Bank Isolate # 0234) was 8 µg/mL and the MIC ([1]; AR Bank Isolate # 0235) was 8 µg/mL. For the same compound, the MIC ([1]; AR Bank Isolate # 0236) was 16 µg/mL, the MIC ([1]; AR Bank Isolate # 0237) was 16 µg/mL and the MIC ([1]; AR Bank Isolate # 0239) was 8 µg/mL. It also gave an MIC ([1]; AR Bank Isolate # 0240) of 16 µg/mL, an MIC ([1]; AR Bank Isolate # 0241) of 16 µg/mL and an MIC ([1]; AR Bank Isolate # 0242) of 8 µg/mL. The MIC ([1]; AR Bank Isolate # 0243) was 16 µg/mL, the MIC ([1]; AR Bank Isolate # 0244) was 16 µg/mL and the MIC ([1]; AR Bank Isolate # 0245) was 16 µg/mL. It also gave an MIC ([1]; AR Bank Isolate # 0246) of 8 µg/mL, an MIC ([1]; AR Bank Isolate # 0248) of 8 µg/mL and an MIC ([1]; AR Bank Isolate # 0250) of 16 µg/mL. For the same compound, the MIC ([1]; AR Bank Isolate # 0252) was 16 µg/mL, the MIC ([1]; AR Bank Isolate # 0254) was 32 µg/mL and the MIC ([1]; AR Bank Isolate # 0265) was 16 µg/mL. The MIC ([1]; AR Bank Isolate # 0763) was 16 µg/mL, the MIC ([1]; AR Bank Isolate # 0767) was 16 µg/mL and the MIC ([1]; AR Bank Isolate # 0769) was 16 µg/mL. The MIC ([1]; AR Bank Isolate # 0772) was 8 µg/mL, the MIC ([1]; Carle Isolate ID # Cl-02) was 8 µg/mL and the MIC ([1]; Carle Isolate ID # Cl-03) was 8 µg/mL. It also gave an MIC ([1]; Carle Isolate ID # Cl-04) of 16 µg/mL, an MIC ([1]; Carle Isolate ID # Cl-05) of 8 µg/mL and an MIC ([1]; Carle Isolate ID # Cl-06) of 8 µg/mL. The MIC ([1]; Carle Isolate ID # Cl-07) was 8 µg/mL, the MIC ([1]; Carle Isolate ID # Cl-08) was 8 µg/mL and the MIC ([1]; Carle Isolate ID # Cl-09) was 8 µg/mL. For the same compound, the MIC ([1]; Carle Isolate ID # Cl-10) was 16 µg/mL, the MIC ([1]; Carle Isolate ID # Cl-11) was 8 µg/mL and the MIC ([1]; Carle Isolate ID # Cl-12) was 8 µg/mL. For the same compound, the MIC ([1]; Carle Isolate ID # Cl-13) was 16 µg/mL, the MIC ([1]; Carle Isolate ID # Cl-14) was 8 µg/mL and the MIC ([1]; Carle Isolate ID # Cl-15) was 8 µg/mL. The MIC ([1]; Carle Isolate ID # Cl-19) was 8 µg/mL, the MIC ([1]; Cubist Strain ID # 996) was 8 µg/mL and the MIC ([1]; Cubist Strain ID # 997) was 8 µg/mL. For the same compound, the MIC ([1]; Cubist Strain ID # 998) was 8 µg/mL, the MIC ([1]; Cubist Strain ID # 999) was 8 µg/mL and the MIC ([1]; Cubist Strain ID # 1000) was 16 µg/mL. It also gave an MIC ([1]; Cubist Strain ID # 1001) of 16 µg/mL, an MIC ([1]; Cubist Strain ID # 1174) of 16 µg/mL and an MIC ([1]; Cubist Strain ID # 1175) of 16 µg/mL. The MIC ([1]; Cubist Strain ID # 1176) was 16 µg/mL, the MIC ([1]; Cubist Strain ID # 1280) was 16 µg/mL and the MIC ([1]; Cubist Strain ID # 1282) was 16 µg/mL. The MIC ([1]; Cubist Strain ID # 1283) was 16 µg/mL, the MIC ([1]; Cubist Strain ID # 1284) was 16 µg/mL and the MIC ([1]; Cubist Strain ID # 1586) was 16 µg/mL. The MIC ([1]; Cubist Strain ID # 1590) was 32 µg/mL, the MIC ([1]; Cubist Strain ID # 1591) was 32 µg/mL and the MIC ([1]; Cubist Strain ID # 1592) was 32 µg/mL. The MIC ([1]; Cubist Strain ID # 1905) was 16 µg/mL, the MIC ([1]; Cubist Strain ID # 1906) was 16 µg/mL and the MIC ([1]; Cubist Strain ID # 2242) was 8 µg/mL. It also gave an MIC ([1]; Cubist Strain ID # 2243) of 16 µg/mL, an MIC ([1]; Cubist Strain ID # 2244) of 8 µg/mL and an MIC ([1]; Other strains (ref.) 1113) of 16 µg/mL. The MIC ([1]; Other strains (ref.) 1727) was 8 µg/mL, the MIC against P. aeruginosa PAO1 (P. aeruginosa PAO1) was 4 µg/mL and the “Fold change (MIC)” value (P. aeruginosa PAO1; 5 mM MgCl2/CAMH versus CAMH (Table 10)) was 32X. For the same compound, the MIC P. aeruginosa PAO1, CAMH (P. aeruginosa PAO1; CAMH (Table 10)) was 4 µg/mL, the “shift in MIC on co-treatment with 5 mM MgCl2” value (P. aeruginosa PAO1; P. aeruginosa PAO1) was 32 -fold and the “increase in activity relative to FA” value (P. aeruginosa PAO1; PAO1 MIC) was 256 -fold. It also gave an MIC (P. aeruginosa PAO1; PAO1) of 4 µg/mL, an MIC (P. aeruginosa PAO1; PAO1, read-out: MIC P. aeruginosa PAO1) of 4 µg/mL and an MIC (P. aeruginosa PAO1; PAO1, read-out: P. aeruginosa PAO1 MIC) of 4 µg/mL. For the same compound, the “MIC P. aeruginosa PAO1, 5 mM MgCl2/CAMH” value (P. aeruginosa PAO1; co-treatment 5 mM MgCl2 in CAMH (Table 10)) was 128, the “period of hydrolysis to fusidic acid” value [2] was 48 h and the MIC (S. aureus ATCC 29213) was 1 µg/mL.
